Source: ChEMBL document CHEMBL1208720, “N-Benzylsalicylthioamides as novel compounds with promising antimycotic activity” (2010)
Converted amounts (≈) assume the structure as drawn.

Test system: Aspergillus fumigatus
Assay: Antifungal activity against Aspergillus fumigatus 231 after 24 hrs by broth microdilution assay
Assay type: functional
Conditions: Aspergillus fumigatus, 231, 24 h

SMILES | MIC [µM]
Oc1ccccc1C(=S)NCc1cccc(Cl)c1 | 62.5 (≈ 17.4 µg/mL)
Oc1ccccc1C(=S)NCc1ccc(F)cc1 | 62.5 (≈ 16.3 µg/mL)
Oc1ccc(Br)cc1C(=S)NCc1cccc(Br)c1 | 7.81 (≈ 3.13 µg/mL)
OC(Cn1cncn1)(Cn1cncn1)c1ccc(F)cc1F [FLUCONAZOLE] | > 50
Oc1ccc(Cl)cc1C(=S)NCc1ccccc1 | 31.2 (≈ 8.68 µg/mL)

Test system: Lichtheimia corymbifera
Assay: Antifungal activity against Absidia corymbifera 272 after 24 hrs by broth microdilution assay
Assay type: functional
Conditions: Lichtheimia corymbifera, 272, 24 h

SMILES | MIC [µM]
Oc1ccccc1C(=S)NCc1cccc(Cl)c1 | 31.2 (≈ 8.68 µg/mL)
Oc1ccccc1C(=S)NCc1ccc(F)cc1 | 15.6 (≈ 4.08 µg/mL)
Oc1ccc(Br)cc1C(=S)NCc1cccc(Br)c1 | 3.9 (≈ 1.56 µg/mL)
OC(Cn1cncn1)(Cn1cncn1)c1ccc(F)cc1F [FLUCONAZOLE] | > 50
Oc1ccc(Cl)cc1C(=S)NCc1ccccc1 | 15.6 (≈ 4.34 µg/mL)

Test system: Trichosporon asahii
Assay: Antifungal activity against Trichosporon asahii 1188 after 48 hrs by broth microdilution assay
Assay type: functional
Conditions: Trichosporon asahii, 1188, 48 h

SMILES | MIC [µM]
Oc1ccccc1C(=S)NCc1cccc(Cl)c1 | 31.2 (≈ 8.68 µg/mL)
Oc1ccccc1C(=S)NCc1ccc(F)cc1 | 62.5 (≈ 16.3 µg/mL)
Oc1ccc(Br)cc1C(=S)NCc1cccc(Br)c1 | 31.2 (≈ 12.5 µg/mL)
OC(Cn1cncn1)(Cn1cncn1)c1ccc(F)cc1F [FLUCONAZOLE] | 9 (≈ 2.76 µg/mL)
Oc1ccc(Cl)cc1C(=S)NCc1ccccc1 | 31.2 (≈ 8.68 µg/mL)

Test system: Candida tropicalis
Assay: Antifungal activity against Candida tropicalis 159 after 24 hrs by broth microdilution assay
Assay type: functional
Conditions: Candida tropicalis, 159, 24 h

SMILES | MIC [µM]
Oc1ccccc1C(=S)NCc1cccc(Cl)c1 | 125 (≈ 34.7 µg/mL)
Oc1ccccc1C(=S)NCc1ccc(F)cc1 | 125 (≈ 32.7 µg/mL)
Oc1ccc(Br)cc1C(=S)NCc1cccc(Br)c1 | 15.6 (≈ 6.27 µg/mL)
OC(Cn1cncn1)(Cn1cncn1)c1ccc(F)cc1F [FLUCONAZOLE] | 3 (≈ 0.919 µg/mL)
Oc1ccc(Cl)cc1C(=S)NCc1ccccc1 | 62.5 (≈ 17.4 µg/mL)

Test system: Pichia kudriavzevii
Assay: Antifungal activity against Candida krusei E28 after 48 hrs by broth microdilution assay
Assay type: functional
Conditions: Pichia kudriavzevii, E28, 48 h

SMILES | MIC [µM]
Oc1ccccc1C(=S)NCc1cccc(Cl)c1 | 125 (≈ 34.7 µg/mL)
Oc1ccccc1C(=S)NCc1ccc(F)cc1 | 125 (≈ 32.7 µg/mL)
Oc1ccc(Br)cc1C(=S)NCc1cccc(Br)c1 | 7.81 (≈ 3.13 µg/mL)
OC(Cn1cncn1)(Cn1cncn1)c1ccc(F)cc1F [FLUCONAZOLE] | > 50
Oc1ccc(Cl)cc1C(=S)NCc1ccccc1 | 31.2 (≈ 8.68 µg/mL)

Test system: Nakaseomyces glabratus
Assay: Antifungal activity against Candida glabrata 20/I after 24 hrs by broth microdilution assay
Assay type: functional
Conditions: Nakaseomyces glabratus, 20/I, 24 h

SMILES | MIC [µM]
Oc1ccccc1C(=S)NCc1cccc(Cl)c1 | 125 (≈ 34.7 µg/mL)
Oc1ccccc1C(=S)NCc1ccc(F)cc1 | 125 (≈ 32.7 µg/mL)
Oc1ccc(Br)cc1C(=S)NCc1cccc(Br)c1 | 7.81 (≈ 3.13 µg/mL)
OC(Cn1cncn1)(Cn1cncn1)c1ccc(F)cc1F [FLUCONAZOLE] | 22 (≈ 6.74 µg/mL)
Oc1ccc(Cl)cc1C(=S)NCc1ccccc1 | 15.6 (≈ 4.34 µg/mL)

Test system: Pichia kudriavzevii
Assay: Antifungal activity against Candida krusei E28 after 24 hrs by broth microdilution assay
Assay type: functional
Conditions: Pichia kudriavzevii, E28, 24 h

SMILES | MIC [µM]
Oc1ccccc1C(=S)NCc1cccc(Cl)c1 | 62.5 (≈ 17.4 µg/mL)
Oc1ccccc1C(=S)NCc1ccc(F)cc1 | 62.5 (≈ 16.3 µg/mL)
Oc1ccc(Br)cc1C(=S)NCc1cccc(Br)c1 | 3.9 (≈ 1.56 µg/mL)
OC(Cn1cncn1)(Cn1cncn1)c1ccc(F)cc1F [FLUCONAZOLE] | > 50
Oc1ccc(Cl)cc1C(=S)NCc1ccccc1 | 15.6 (≈ 4.34 µg/mL)

Test system: Candida albicans
Assay: Antifungal activity against Candida albicans ATCC 44859 after 48 hrs by broth microdilution assay
Assay type: functional
Conditions: Candida albicans, ATCC 44859, 48 h

SMILES | MIC [µM]
Oc1ccccc1C(=S)NCc1cccc(Cl)c1 | 125 (≈ 34.7 µg/mL)
Oc1ccccc1C(=S)NCc1ccc(F)cc1 | 125 (≈ 32.7 µg/mL)
Oc1ccc(Br)cc1C(=S)NCc1cccc(Br)c1 | 31.2 (≈ 12.5 µg/mL)
OC(Cn1cncn1)(Cn1cncn1)c1ccc(F)cc1F [FLUCONAZOLE] | 2 (≈ 0.613 µg/mL)
Oc1ccc(Cl)cc1C(=S)NCc1ccccc1 | 125 (≈ 34.7 µg/mL)

Test system: Lichtheimia corymbifera
Assay: Antifungal activity against Absidia corymbifera 272 after 48 hrs by broth microdilution assay
Assay type: functional
Conditions: Lichtheimia corymbifera, 272, 48 h

SMILES | MIC [µM]
Oc1ccccc1C(=S)NCc1cccc(Cl)c1 | 31.2 (≈ 8.68 µg/mL)
Oc1ccccc1C(=S)NCc1ccc(F)cc1 | 31.2 (≈ 8.17 µg/mL)
Oc1ccc(Br)cc1C(=S)NCc1cccc(Br)c1 | 3.9 (≈ 1.56 µg/mL)
OC(Cn1cncn1)(Cn1cncn1)c1ccc(F)cc1F [FLUCONAZOLE] | > 50
Oc1ccc(Cl)cc1C(=S)NCc1ccccc1 | 15.6 (≈ 4.34 µg/mL)

Test system: Trichosporon asahii
Assay: Antifungal activity against Trichosporon asahii 1188 after 24 hrs by broth microdilution assay
Assay type: functional
Conditions: Trichosporon asahii, 1188, 24 h

SMILES | MIC [µM]
Oc1ccccc1C(=S)NCc1cccc(Cl)c1 | 31.2 (≈ 8.68 µg/mL)
Oc1ccccc1C(=S)NCc1ccc(F)cc1 | 31.2 (≈ 8.17 µg/mL)
Oc1ccc(Br)cc1C(=S)NCc1cccc(Br)c1 | 15.6 (≈ 6.27 µg/mL)
OC(Cn1cncn1)(Cn1cncn1)c1ccc(F)cc1F [FLUCONAZOLE] | 4 (≈ 1.23 µg/mL)
Oc1ccc(Cl)cc1C(=S)NCc1ccccc1 | 31.2 (≈ 8.68 µg/mL)

Test system: Trichophyton mentagrophytes
Assay: Antifungal activity against Trichophyton mentagrophytes 445 after 72 hrs by broth microdilution assay
Assay type: functional
Conditions: Trichophyton mentagrophytes, 445, 72 h

SMILES | MIC [µM]
Oc1ccccc1C(=S)NCc1cccc(Cl)c1 | 7.81 (≈ 2.17 µg/mL)
Oc1ccccc1C(=S)NCc1ccc(F)cc1 | 7.81 (≈ 2.04 µg/mL)
Oc1ccc(Br)cc1C(=S)NCc1cccc(Br)c1 | 1.95 (≈ 0.782 µg/mL)
OC(Cn1cncn1)(Cn1cncn1)c1ccc(F)cc1F [FLUCONAZOLE] | 17 (≈ 5.21 µg/mL)
Oc1ccc(Cl)cc1C(=S)NCc1ccccc1 | 1.95 (≈ 0.542 µg/mL)

Test system: Candida albicans
Assay: Antifungal activity against Candida albicans ATCC 44859 after 24 hrs by broth microdilution assay
Assay type: functional
Conditions: Candida albicans, ATCC 44859, 24 h

SMILES | MIC [µM]
Oc1ccccc1C(=S)NCc1cccc(Cl)c1 | 125 (≈ 34.7 µg/mL)
Oc1ccccc1C(=S)NCc1ccc(F)cc1 | 62.5 (≈ 16.3 µg/mL)
Oc1ccc(Br)cc1C(=S)NCc1cccc(Br)c1 | 15.6 (≈ 6.27 µg/mL)
OC(Cn1cncn1)(Cn1cncn1)c1ccc(F)cc1F [FLUCONAZOLE] | 1 (≈ 0.306 µg/mL)
Oc1ccc(Cl)cc1C(=S)NCc1ccccc1 | 62.5 (≈ 17.4 µg/mL)

Test system: Aspergillus fumigatus
Assay: Antifungal activity against Aspergillus fumigatus 231 after 48 hrs by broth microdilution assay
Assay type: functional
Conditions: Aspergillus fumigatus, 231, 48 h

SMILES | MIC [µM]
Oc1ccccc1C(=S)NCc1cccc(Cl)c1 | 62.5 (≈ 17.4 µg/mL)
Oc1ccccc1C(=S)NCc1ccc(F)cc1 | 62.5 (≈ 16.3 µg/mL)
Oc1ccc(Br)cc1C(=S)NCc1cccc(Br)c1 | 15.6 (≈ 6.27 µg/mL)
OC(Cn1cncn1)(Cn1cncn1)c1ccc(F)cc1F [FLUCONAZOLE] | > 50
Oc1ccc(Cl)cc1C(=S)NCc1ccccc1 | 31.2 (≈ 8.68 µg/mL)

Test system: Nakaseomyces glabratus
Assay: Antifungal activity against Candida glabrata 20/I after 48 hrs by broth microdilution assay
Assay type: functional
Conditions: Nakaseomyces glabratus, 20/I, 48 h

SMILES | MIC [µM]
Oc1ccccc1C(=S)NCc1cccc(Cl)c1 | 250 (≈ 69.4 µg/mL)
Oc1ccccc1C(=S)NCc1ccc(F)cc1 | 250 (≈ 65.3 µg/mL)
Oc1ccc(Br)cc1C(=S)NCc1cccc(Br)c1 | 31.2 (≈ 12.5 µg/mL)
OC(Cn1cncn1)(Cn1cncn1)c1ccc(F)cc1F [FLUCONAZOLE] | > 50
Oc1ccc(Cl)cc1C(=S)NCc1ccccc1 | 62.5 (≈ 17.4 µg/mL)

Test system: Trichophyton mentagrophytes
Assay: Antifungal activity against Trichophyton mentagrophytes 445 after 120 hrs by broth microdilution assay
Assay type: functional
Conditions: Trichophyton mentagrophytes, 445, 120 h

SMILES | MIC [µM]
Oc1ccccc1C(=S)NCc1cccc(Cl)c1 | 15.6 (≈ 4.34 µg/mL)
Oc1ccccc1C(=S)NCc1ccc(F)cc1 | 31.2 (≈ 8.17 µg/mL)
Oc1ccc(Br)cc1C(=S)NCc1cccc(Br)c1 | 1.95 (≈ 0.782 µg/mL)
OC(Cn1cncn1)(Cn1cncn1)c1ccc(F)cc1F [FLUCONAZOLE] | 26 (≈ 7.96 µg/mL)
Oc1ccc(Cl)cc1C(=S)NCc1ccccc1 | 3.9 (≈ 1.08 µg/mL)

Test system: Candida tropicalis
Assay: Antifungal activity against Candida tropicalis 159 after 48 hrs by broth microdilution assay
Assay type: functional
Conditions: Candida tropicalis, 159, 48 h

SMILES | MIC [µM]
Oc1ccccc1C(=S)NCc1cccc(Cl)c1 | 125 (≈ 34.7 µg/mL)
Oc1ccccc1C(=S)NCc1ccc(F)cc1 | 250 (≈ 65.3 µg/mL)
Oc1ccc(Br)cc1C(=S)NCc1cccc(Br)c1 | 62.5 (≈ 25.1 µg/mL)
OC(Cn1cncn1)(Cn1cncn1)c1ccc(F)cc1F [FLUCONAZOLE] | 5 (≈ 1.53 µg/mL)
Oc1ccc(Cl)cc1C(=S)NCc1ccccc1 | 125 (≈ 34.7 µg/mL)
